Measured values from patent US20240270821A1, “GIP/GLP1/GCG TRI-RECEPTOR AGONISTS AND USES THEREOF” (priority 2023, published 2024).
Starred links: 1 amine or outer side, 2 acyl side, 3 side chain; linkers in the order of their positions; H or OH if unused. Non-standard residues stand in square brackets, D forms with d. Groups on a side chain read outwards from the residue. No end group written: not given here. *: point of attachment. C20 diacid = O=C(O)CCCCCCCCCCCCCCCCCCC(=O)*; C18 diacid = O=C(O)CCCCCCCCCCCCCCCCC(=O)*; γGlu = O=C(O)[C@H](CCC(=O)[*:2])N[*:1]; αMe4Pal = C[C@](N)(Cc1ccncc1)C(=O)O; 4Pal = N[C@@H](Cc1ccncc1)C(=O)O; αMeL = CC(C)C[C@](C)(N)C(=O)O; Orn = NCCC[C@H](N)C(=O)O; Dab = NCC[C@H](N)C(=O)O; AEEA = NCCOCCOCC(=O)O; Aib = CC(C)(N)C(=O)O

Key:
Format in all cases: cell-based
hGLP-1R [1] = molecular target: T1, hGLP-1R (Homo sapiens, UniProt P43220); test: Functional cAMP activation in the presence of 0.1% casein (no HSA); conditions: in the presence of 0.1% casein (no HSA); geometric mean; read-out: Relative cAMP EC50, hGLP-1R;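 further: intracellular cAMP rise after 30 min at 37 °C read by HTRF, normalized between buffer only (0%) and maximal control ligand (100%), four-parameter variable-slope fit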
T1 sequence (P43220 24-463): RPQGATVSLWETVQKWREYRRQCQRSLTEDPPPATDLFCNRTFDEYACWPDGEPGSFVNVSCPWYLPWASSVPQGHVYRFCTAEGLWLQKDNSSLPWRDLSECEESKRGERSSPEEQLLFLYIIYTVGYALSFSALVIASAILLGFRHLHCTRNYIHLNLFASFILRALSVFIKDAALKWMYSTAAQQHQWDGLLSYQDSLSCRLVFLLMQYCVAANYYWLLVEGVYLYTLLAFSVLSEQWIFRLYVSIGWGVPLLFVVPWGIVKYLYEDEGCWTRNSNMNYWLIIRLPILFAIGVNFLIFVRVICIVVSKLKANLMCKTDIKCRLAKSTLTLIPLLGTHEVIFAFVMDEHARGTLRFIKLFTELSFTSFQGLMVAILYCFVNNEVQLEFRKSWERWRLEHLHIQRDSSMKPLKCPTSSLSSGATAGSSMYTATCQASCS

hGIPR [2] = molecular target: T2, hGIPR (Homo sapiens, UniProt P48546); test: Functional cAMP activity in the presence of 1% HSA; conditions: read-out: cAMP Rel EC50, hGIPR
T2 sequence (P48546 22-466): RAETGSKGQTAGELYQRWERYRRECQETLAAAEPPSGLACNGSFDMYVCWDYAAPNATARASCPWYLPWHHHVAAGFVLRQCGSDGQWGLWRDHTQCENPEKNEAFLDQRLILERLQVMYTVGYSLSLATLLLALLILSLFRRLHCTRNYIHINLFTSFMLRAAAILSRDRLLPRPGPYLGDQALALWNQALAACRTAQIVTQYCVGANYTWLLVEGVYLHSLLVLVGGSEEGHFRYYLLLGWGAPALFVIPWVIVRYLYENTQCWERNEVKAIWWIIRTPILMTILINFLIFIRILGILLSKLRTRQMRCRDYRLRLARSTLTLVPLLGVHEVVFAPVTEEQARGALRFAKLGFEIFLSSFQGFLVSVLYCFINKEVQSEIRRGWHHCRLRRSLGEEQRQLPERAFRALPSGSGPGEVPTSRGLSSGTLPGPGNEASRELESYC

human GLP1-R = human GLP1-R (Homo sapiens, UniProt P43220); test: GLP1-R internalization assay in HEK293 cells; conditions: for EC50: HEK293 cells expressing SNAP-GLP-1R, read-out: GLP1R Internalization EC50; for Internalization % TOP: normalized to maximum concentration of GLP-1 (100%)
Sequence of human GLP1-R (P43220 24-463): as the sequence (P43220 24-463) above

hGcgR = hGcgR (Homo sapiens, UniProt P47871); test: Functional cAMP activation in the presence of 0.1% casein (no HSA); conditions: in the presence of 0.1% casein (no HSA); geometric mean; read-out: Relative cAMP EC50, hGcgR;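 further: intracellular cAMP rise after 30 min at 37 °C, read by HTRF against a cAMP standard curve, scaled from buffer only (0%) to maximal control ligand response (100%)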
Sequence of hGcgR (P47871 26-477): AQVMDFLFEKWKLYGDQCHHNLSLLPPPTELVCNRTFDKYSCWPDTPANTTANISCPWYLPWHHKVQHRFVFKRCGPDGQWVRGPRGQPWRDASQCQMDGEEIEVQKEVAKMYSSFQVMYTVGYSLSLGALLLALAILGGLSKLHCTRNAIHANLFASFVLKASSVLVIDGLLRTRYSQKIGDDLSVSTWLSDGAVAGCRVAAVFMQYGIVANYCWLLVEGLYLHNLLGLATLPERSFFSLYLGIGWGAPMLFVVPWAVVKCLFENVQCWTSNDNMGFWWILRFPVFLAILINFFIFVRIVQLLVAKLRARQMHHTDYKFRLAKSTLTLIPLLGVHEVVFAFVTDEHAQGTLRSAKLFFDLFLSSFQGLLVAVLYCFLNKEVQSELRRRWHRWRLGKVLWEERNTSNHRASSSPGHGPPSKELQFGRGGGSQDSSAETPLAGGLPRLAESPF

hGLP-1R [3] = molecular target: T1, hGLP-1R; test: Functional cAMP activity in the presence of 1% HSA; conditions: read-out: cAMP Rel EC50, hGLP-1R
hGIPR [4] = molecular target: T2, hGIPR; test: Functional cAMP activation in the presence of 0.1% casein (no HSA); conditions: in the presence of 0.1% casein (no HSA); geometric mean; read-out: Relative cAMP EC50, hGIPR;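 further: intracellular cAMP rise after 30 min at 37 °C read by HTRF against a standard curve, scaled between buffer alone (0%) and top control ligand concentration (100%), four-parameter fit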
human GcgR = human GcgR (Homo sapiens, UniProt P47871); test: Functional cAMP activity in the presence of 1% HSA; conditions: read-out: cAMP Rel EC50, hGcgR
Sequence of human GcgR (P47871 26-477): as above

Row | Compound | EC50 (hGLP-1R [1]) | EC50 (hGIPR [2]) | EC50 (human GLP1-R) | Internalization % TOP (human GLP1-R) | EC50 (hGcgR) | EC50 (hGLP-1R [3]) | EC50 (hGIPR [4]) | EC50 (human GcgR)
1 | H-Y[Aib]QGTFTSDFS[Orn][αMeL]LDKK([AEEA-AEEA-γGlu-C18 diacid])AQ[Aib]AFIEYLLE[Aib]GPSSGEPPPSGS-NH2 [Example 166] | 6.96 nM | 21 nM | 74.6 nM | 44.2% | 3.82 nM | 1500 nM | 0.118 nM | 724 nM
2 | H-Y[Aib]QGTFTSDFS[Orn][αMeL]LDKK([AEEA-γGlu-C18 diacid])AQ[Aib]AFIEWLLEGGHSSGAPPPSGE-NH2 [Example 122] | 3.93 nM | 32.6 nM | 57.4 nM | 43.7% | 3.95 nM | 468 nM | 0.189 nM | 548 nM
3 | H-Y[Aib]QGTFTSDFS[Orn][αMeL]LDKK([AEEA-γGlu-C18 diacid])AQ[Aib]AFIEYLLEGG[4Pal]SSGAPPPGGS-NH2 [Example 163] | 6.5 nM | 52 nM | 143 nM | 37.8% | 5.6 nM | 762 nM | 0.376 nM | 790 nM
4 | H-Y[Aib]QGTFTSDFS[Orn][αMeL]LDKK([AEEA-AEEA-γGlu-C18 diacid])AQ[Aib]AFIEYLLE[Aib]GPSSGAPPPSGE-NH2 [Example 111] | 5.06 nM | 10.4 nM | 49.1 nM | 46.4% | 4.25 nM | 878 nM | 0.0888 nM | 1260 nM
5 | H-Y[Aib]QGTFTSDFSK[αMeL]LDKK([AEEA-γGlu-C18 diacid])AQ[Aib]AFIEYLIE[Aib]GESSGAPPPSGE-NH2 [Example 217] | 0.667 nM | 15 nM | 27.6 nM | 58.2% | 5.11 nM | 130 nM | 0.0897 nM | 1570 nM
6 | H-Y[Aib]QGTFTSDFS[Orn][αMeL]LDKK([AEEA-γGlu-γGlu-C18 diacid])AQ[Aib]AFIEYLLE[Aib]GPSSGAPPPSGS-NH2 [Example 192] | 9.77 nM | 9.86 nM | 115 nM | 48.7% | 4.18 nM | 719 nM | 0.142 nM | 560 nM
7 | Y[Aib]QGTFTSDFS[Dab][αMeL]LDKK([AEEA-γGlu-C18 diacid])AQ[Aib]AFIEYLLEGGPSSGAPPPGGS-NH2 [Example 67] | 4.07 nM | 73.3 nM | 50.9 nM | 31.1% | 3.7 nM | 683 nM | 0.34 nM | 781 nM
8 | H-Y[Aib]QGTFTSDYSK[αMeL]LDKK([AEEA-γGlu-C18 diacid])AQ[Aib]AFIEYLLEGGESSGAPPPSGS-NH2 [Example 358] | 2.31 nM | 38.8 nM | 21.5 nM | 83.1% | 2.78 nM | 492 nM | 0.182 nM | 876 nM
9 | H-Y[Aib]QGTFTSDFS[Orn][αMeL]LDKK([AEEA-γGlu-C18 diacid])AQ[αMe4Pal]AFIEYLIE[Aib]GESSGAPPPSGS-NH2 [Example 229] | 1.58 nM | 27.8 nM | 42.4 nM | 31.4% | 2.3 nM | 249 nM | 0.179 nM | 332 nM
10 | H-Y[Aib]QGTFTSDFS[Orn][αMeL]LDKK([AEEA-γGlu-C18 diacid])AQ[Aib]AFIEYLLAGGPSSGAPPPSGE-NH2 [Example 86] | 2.43 nM | 19.6 nM | 57.8 nM | 52.5% | 7.23 nM | 421 nM | 0.145 nM | 1130 nM
11 | H-Y[Aib]QGTFTSD[4Pal]S[Orn][αMeL]LDKK([AEEA-γGlu-C18 diacid])AQ[Aib]AFIEWLLEGGPSSGEPPPSGE-NH2 [Example 115] | 7.6 nM | 73.9 nM | 255 nM | 56.5% | 10.6 nM | 1460 nM | 0.457 nM | 2210 nM
12 | CC[C@H](C)[C@H](NC(=O)[C@H](Cc1ccccc1)NC(=O)[C@H](C)NC(=O)C(C)(C)NC(=O)[C@H](CCC(N)=O)NC(=O)[C@H](C)NC(=O)[C@H](CCCCNC(=O)COCCOCCNC(=O)CC[C@H](NC(=O)CCCCCCCCCCCCCCCCC(=O)O)C(=O)O)NC(=O)[C@H](CCCCN)NC(=O)[C@H](CC(=O)O)NC(=O)[C@H](CC(C)C)NC(=O)[C@](C)(CC(C)C)NC(=O)[C@H](CCCN)NC(=O)[C@H](CO)NC(=O)[C@H](Cc1ccccc1)NC(=O)[C@H](CC(=O)O)NC(=O)[C@H](CO)NC(=O)[C@@H](NC(=O)[C@H](Cc1ccccc1)NC(=O)[C@@H](NC(=O)CNC(=O)[C@H](CCC(N)=O)NC(=O)C(C)(C)NC(=O)[C@@H](N)Cc1ccc(O)cc1)[C@@H](C)O)[C@@H](C)O)C(=O)N[C@@H](CCC(=O)O)C(=O)N[C@@H](Cc1ccc(O)cc1)C(=O)N[C@@H](CC(C)C)C(=O)N[C@@H](CC(C)C)C(=O)N[C@@H](CCC(=O)O)C(=O)N[C@H](C)C(=O)NCC(=O)N1CCC[C@H]1C(=O)N[C@@H](CO)C(=O)N[C@@H](CO)C(=O)NCC(=O)N[C@@H](C)C(=O)N1CCC[C@H]1C(=O)N1CCC[C@H]1C(=O)N1CCC[C@H]1C(=O)N[C@@H](CO)C(=O)NCC(=O)N[C@@H](CCC(=O)O)C(N)=O [Example 129] | 1.87 nM | 24.3 nM | 22.5 nM | 40.6% | 2.01 nM | 284 nM | 0.134 nM | 510 nM
13 | H-Y[Aib]QGTFTSDFS[Orn][αMeL]LDKK([AEEA-AEEA-γGlu-C18 diacid])AQ[Aib]AFIEYLLE[Aib]G[4Pal]SSGAPPPSGS-NH2 [Example 183] | 5.03 nM | 13.7 nM | 100 nM | 45.4% | 3.83 nM | 295 nM | 0.0759 nM | 504 nM
14 | H-Y[Aib]QGTFTSDFSK[αMeL]LDKK([AEEA-γGlu-C20 diacid])AQ[Aib]AFIEYLLE[Aib]GPSSGAPPPSGS-NH2 [Example 45] | 1.52 nM | 33.4 nM | 52.6 nM | 62.1% | 2.08 nM | 493 nM | 0.112 nM | 879 nM
15 | H-Y[Aib]QGTFTSDFS[Orn][αMeL]LDKK([AEEA-γGlu-C18 diacid])AQ[Aib]AFIEWLLEGGSSSGAPPPSGS-NH2 [Example 173] | 2.32 nM | 49.9 nM | 97.1 nM | 38.6% | 3.6 nM | 293 nM | 0.168 nM | 745 nM
